The values that follow come from ChEMBL document CHEMBL1201861, “Genomics of Drug Sensitity in Cancer screening data, Wellcome Trust Sanger Institute”.

A value given as a limit tells only on which side of the number the result lay.

What all share (type): functional, cell-based
One experiment concerns ST486. As to the kind of experiment: SANGER: Inhibition of human ST486 cell growth in a cell viability assay.
The subject of a further experiment is DMS-153. As to the kind of experiment: cells. The conditions noted are these: Homo sapiens.
Another experiment relates to SIMA. As to the kind of experiment: cells. The conditions noted are these: Homo sapiens.
In another experiment the test system is NB1. As to the kind of experiment: cells. The conditions noted are these: Homo sapiens.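 Also: reduction of NB1 cell proliferation, read out with a viability assay.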
The subject of a further experiment is MOLT-13. As to the kind of experiment: cells. The conditions noted are these: Homo sapiens.
Another experiment has as its system COR-L279. As to the kind of experiment: SANGER: Inhibition of human COR-L279 cell growth in a cell viability assay.
For another experiment, the system named is NCI-H748. As to the kind of experiment: cells. The conditions noted are these: Homo sapiens.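 Also: growth inhibition of NCI-H748 cells, measured by a cell viability assay.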
In another experiment the test system is TGW. As to the kind of experiment: cells. The conditions noted are these: Homo sapiens.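 Also: growth inhibition of human TGW cells, read out with a cell viability assay.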
A further experiment relates to NALM-6. As to the kind of experiment: cells. As to conditions: Homo sapiens.
In a further experiment the test system is IST-SL2. As to the kind of experiment: cells. The conditions noted are these: Homo sapiens.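 Also: growth inhibition of human IST-SL2 cells, read out by a cell viability assay.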
A further experiment relates to LOUCY. As to the kind of experiment: cells. As to conditions: Homo sapiens.
In another experiment the test system is WSU-NHL. As to the kind of experiment: cells. As to conditions: Homo sapiens.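 Also: growth inhibition of human WSU-NHL cells, read out with a cell viability assay.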
Another experiment has as its system NCI-H1436. As to the kind of experiment: cells. As to conditions: Homo sapiens.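 Also: growth suppression of human NCI-H1436 cells, determined with a cell viability readout.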
The test system of the next experiment is IM-9. As to the kind of experiment: SANGER: Inhibition of human IM-9 cell growth in a cell viability assay.
The test system of the next experiment is EW-22. As to the kind of experiment: cells. As to conditions: Homo sapiens.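 Also: growth inhibition of the EW-22 cell line, measured with a cell viability readout.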
Another experiment has as its system CMK. As to the kind of experiment: cells. As to conditions: Homo sapiens.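 Also: growth inhibition of CMK cells, read out as cell viability.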
For another experiment, the system named is IMR-5. As to the kind of experiment: cells. The conditions noted are these: Homo sapiens.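 Also: growth inhibition of human IMR-5 cells, read out with a cell viability assay.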
In the next experiment the test system is NCI-H2081. As to the kind of experiment: cells. As to conditions: Homo sapiens.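 Also: growth inhibition of human NCI-H2081 cells, read out with a cell viability assay.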
A further experiment deals with K052. As to the kind of experiment: cells. As to conditions: Homo sapiens.
The test system of another experiment is BOKU. As to the kind of experiment: cells. The conditions noted are these: Homo sapiens.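 Also: growth inhibition of the human BOKU cell line, read out by a cell viability assay.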

Description for BOKU: SANGER: Inhibition of human BOKU cell growth in a cell viability assay.
Description for CMK: SANGER: Inhibition of human CMK cell growth in a cell viability assay.
Description for DMS-153: SANGER: Inhibition of human DMS-153 cell growth in a cell viability assay.
Description for EW-22: SANGER: Inhibition of human EW-22 cell growth in a cell viability assay.
Description for IMR-5: SANGER: Inhibition of human IMR-5 cell growth in a cell viability assay.
Description for IST-SL2: SANGER: Inhibition of human IST-SL2 cell growth in a cell viability assay.
Description for K052: SANGER: Inhibition of human K052 cell growth in a cell viability assay.
Description for LOUCY: SANGER: Inhibition of human LOUCY cell growth in a cell viability assay.
Description for MOLT-13: SANGER: Inhibition of human MOLT-13 cell growth in a cell viability assay.
Description for NALM-6: SANGER: Inhibition of human NALM-6 cell growth in a cell viability assay.
Description for NB1: SANGER: Inhibition of human NB1 cell growth in a cell viability assay.
Description for NCI-H1436: SANGER: Inhibition of human NCI-H1436 cell growth in a cell viability assay.
Description for NCI-H2081: SANGER: Inhibition of human NCI-H2081 cell growth in a cell viability assay.
Description for NCI-H748: SANGER: Inhibition of human NCI-H748 cell growth in a cell viability assay.
Description for SIMA: SANGER: Inhibition of human SIMA cell growth in a cell viability assay.
Description for TGW: SANGER: Inhibition of human TGW cell growth in a cell viability assay.
Description for WSU-NHL: SANGER: Inhibition of human WSU-NHL cell growth in a cell viability assay.

In the case of `Cc1ccc(NC(=O)c2cccc(C(C)(C)C#N)c2)cc1Nc1ccc2ncn(C)c(=O)c2c1`, the concentration for half-maximal inhibition (IC50) was 1390 nM in the experiment on ST486; over 4000 nM in the experiment with DMS-153; over 4000 nM in the experiment on SIMA; over 4000 nM in the experiment with NB1; over 4000 nM in the experiment with MOLT-13; over 4000 nM in the experiment on COR-L279. For the same molecule, the half-inhibitory concentration (IC50) in the experiment on NCI-H748, with TGW, with NALM-6, with IST-SL2, with LOUCY and in the experiment on WSU-NHL was over 4000 nM in each case. Also, the IC50 in the experiment on NCI-H1436, with IM-9, with EW-22, in the experiment on CMK, with IMR-5 and with NCI-H2081 was over 4000 nM throughout.
As for `CCn1c(-c2nonc2N)nc2cnc(Oc3cccc(NC(=O)c4ccc(OCCN5CCOCC5)cc4)c3)cc21` [GSK-269962A], the IC50 in the experiment on ST486 was over 2500 nM; in the experiment with DMS-153, over 2500 nM; in the experiment on SIMA it was over 2500 nM; in the experiment with NB1 it was over 2500 nM; with MOLT-13 it was over 2500 nM; with COR-L279, 2070 nM. Besides, the IC50 with NCI-H748 is over 2500 nM; in the experiment on TGW, over 2500 nM; in the experiment on NALM-6 it was 1560 nM; in the experiment on IST-SL2, over 2500 nM; in the experiment with LOUCY, 1150 nM; in the experiment with WSU-NHL, over 2500 nM. Besides, the IC50 in the experiment on NCI-H1436 is over 2500 nM; in the experiment with IM-9, over 2500 nM; in the experiment on EW-22, over 2500 nM; in the experiment with CMK, 1010 nM; with IMR-5, over 2500 nM; in the experiment with NCI-H2081, over 2500 nM. The molecule also registered an IC50 with K052 of 753 nM.
Consider `Cc1[nH]c(/C=C2\C(=O)Nc3ccc(S(=O)(=O)Cc4c(Cl)cccc4Cl)cc32)c(C)c1C(=O)N1CCC[C@@H]1CN1CCCC1` [PHA-665752], for which the IC50 in the experiment on ST486, in the experiment with DMS-153, with SIMA, in the experiment on NB1, with BOKU and with MOLT-13 was over 2000 nM each time. Also, the IC50 in the experiment on COR-L279, in the experiment with NCI-H748, with TGW, in the experiment on NALM-6, in the experiment with IST-SL2 and in the experiment on LOUCY was over 2000 nM throughout. In addition, the IC50 in the experiment with WSU-NHL, with NCI-H1436, in the experiment with IM-9, with EW-22, in the experiment on CMK and in the experiment on IMR-5 was over 2000 nM throughout. The IC50 with NCI-H2081 and with K052 was over 2000 nM in each case.

A word on the IC50: it is the concentration needed to halve the response being measured.
